Laboratory results from patent publication US9718826B2, “Imidazopyrazinone derivatives” (Merck Patent GmbH, priority 2013, dated 2017).

Tests used:
His-tagged Parp-1 = biological target: T1, His-tagged Parp-1 (Homo sapiens, UniProt P09874); assay: PARP-1 autoparsylation assay (HTRF); assay type: biochemical; details: PARP-1 autoparsylation HTRF
T1 construct: purchased Enzo Life Sciences GmbH, Lörrach, Germany
From the text: Description of the PARP1 Assay
Biochemical Activity Testing of PARP-1: Autoparsylation Assay
The autoparsylation assay is run in two steps: the enzymatic reaction in which His-tagged Parp-1 transfers biotinylated ADP-ribose/ADP-ribose to itself from biotinylated NAD/NAD as co-substrate and the detection reaction where a time resolved FRET between cryptate labelled anti-His antibody bound to the His tag of the enzyme and Xlent® labelled-streptavidin bound the biotin-parsylation residue is analysed. The autoparsylation activity is detectable directly via the increase in HTRF signal.
The autoparsylation assay is performed as 384-well HTRF® (Cisbio, Codolet, France) assay format in Greiner low volume nb 384-well microtiter plates. 35 nM His-tagged Parp-1 (human, recombinant, Enzo Life Sciences GmbH, Lörrach, Germany) and a mixture of 125 nM bio-NAD (Biolog, Life science Inst., Bremen, Germany) and 800 nM NAD as co-substrate are incubated in a total volume of 6 μl (100 mM Tris/HCl, 4 mM Mg-chloride, 0.01% IGEPAL® CA630, 1 mM DTT, 0.5% DMSO, pH 8, 13 ng/μl activated DNA (BPS Bioscience, San Diego, US)) in the absence or presence of the test compound (10 dilution concentrations) for 150 min at 23° C. The reaction is stopped by the addition of 4 μl of the Stop/detection solution (70 nM SA-Xlent® (Cisbio, Codolet, France), 2.5 nM Anti-His-K® (Eu-labelled anti-His, Cisbio, Codolet, France) in 50 mM HEPES, 400 mM KF, 0.1% BSA, 20 mM EDTA, pH 7.0). After 1 h incubation at room temperature the HTRF is measured with an Envision multimode reader (Perkin Elmer LAS Germany GmbH) at excitation wavelength 340 nm (laser mode) and emission wavelengths 615 nm and 665 nm. The ratio of the emission signals is determined. The full value used is the inhibitor-free reaction. The pharmacological zero value used is Olaparib (LClabs, Woburn, US) in a final concentration of 1 μM. The inhibitory values (IC50) are determined using either the program Symyx Assay Explorer® or Condosseo® from GeneData.

[1] = biological target: T2, GST-tagged Tnks-1 (1023-1327 aa) (Homo sapiens, UniProt O95271); assay: TNKS1 activity ELISA (autoparsylation assay); assay type: biochemical
T2 construct: GST-tagged Tnks-1 (1023-1327 aa, prepared in-house); made in house
Procedure: (§1) Description of the TNKS1 and TNKS2 ELISA Assay
(§2) Biochemical Activity Testing of TNKS 1 and 2: Activity ELISA (Autoparsylation Assay)
(§3) For analysis of autoparsylation activity of TNKS 1 and 2 an activity ELISA is performed: In the first step GST tagged TNKS is captured on a Glutathione coated plate. Then the activity assay with biotinylated NAD is performed in the absence/presence of the compounds. During the enzymatic reaction GST tagged TNKS transfers biotinylated ADP-ribose to itself from biotinylated NAD as co-substrate. For the detection streptavidin-HRP conjugate is added that binds to the biotinylated TNKS and is thereby captured to the plates. The amount of biotinylated resp. autoparsylated TNKS is detected with a luminescence substrate for HRP. The level of the luminescence signal correlates directly with the amount of autoparsylated TNKS and therefore with activity of TNKS.
(§4) The activity ELISA is performed in 384 well Glutathione coated microtiter plates (Express capture Glutathione coated plate, Biocat, Heidelberg, Germany). The plates are pre-equilibrated with PBS. Then the plates are incubated with 50 μl 20 ng/well GST-tagged Tnks-1 (1023-1327 aa, prepared in-house), respectively GST-tagged Tnks-2 (873-1166 aa, prepared in-house) in assay buffer (50 mM HEPES, 4 mM Mg-chloride, 0.05% Pluronic F-68, 2 mM DTT, pH 7.7) overnight at 4° C. The plates are washed 3 times with PBS-Tween-20. The wells are blocked by incubation at room temperature for 20 minutes with 50 μl blocking buffer (PBS, 0.05% Tween-20, 0.5% BSA). Afterwards the plates are washed 3 times with PBS-Tween-20. The enzymatic reaction is performed in 50 μl reaction solution (50 mM HEPES, 4 mM Mg-chloride, 0.05% Pluronic F-68, 1.4 mM DTT, 0.5% DMSO, pH 7.7) with 10 μM bio-NAD (Biolog, Life science Inst., Bremen, Germany) as co-substrate in the absence or presence of the test compound (10 dilution concentrations) for 1 hour at 30° C. The reaction is stopped by 3 times washing with PBS-Tween-20. For the detection 50 μl of 20 ng/μl Streptavidin, HRP conjugate (MoBiTec, Göttingen, Germany) in PBS/0.05% Tween-20/0.01% BSA are added and the plates are incubated for 30 minutes at room temperature. After three times washing with PBS-Tween-20 50 μl of SuperSignal ELISA Femto Maximum sensitivity substrate solution (ThermoFisherScientific (Pierce), Bonn, Germany) are added. Following a 1 minute incubation at room temperature luminescence signals are measured with an Envision multimode reader (Perkin Elmer LAS Germany GmbH) at 700 nm. The full value used is the inhibitor-free reaction. The pharmacological zero value used is XAV-939 (Tocris) in a final concentration of 5 μM. The inhibitory values (IC50) are determined using either the program Symyx Assay Explorer® or Condosseo® from GeneData.

[2] = biological target: T3, GST-tagged Tankyrase-1 (1023-1327 aa) (Homo sapiens, UniProt O95271); assay: Tankyrase 1 autoparsylation assay (HTRF); assay type: biochemical; details: read-out: IC50 TNKS1 enzyme assay
T3 construct: GST-tagged Tankyrase-1 (1023-1327 aa)
Procedure: (§5) Biochemical activity testing of Tankyrase 1 and 2: Autoparsylation assay
(§6) The autoparsylation assay is run in two steps: the enzymatic reaction in which GST-tagged Tankyrase-1, resp Tankyrase-2 transferred biotinylated ADP-ribose to itself from biotinylated NAD as co-substrate and the detection reaction where a time resolved FRET between cryptate labelled anti-GST bound to the GST tag of the enzyme and Xlent® labelled-streptavidin bound the biotin-parsylation residue is analysed. The autoparsylation activity was detectable directly via the increase in HTRF signal.
(§7) The autoparsylation assay is performed as 384-well HTRF® (Cisbio, Codolet, France) assay format in Greiner low volume nb 384-well microtiter plates and is used for high throughput screen. 250 nM GST-tagged Tankyrase-1 (1023-1327 aa), respectively about 250 nM GST-tagged Tankyrase-2 (873-1166 aa) and 5 μM bio-NAD (Biolog, Life science Inst., Bremen, Germany) as co-substrate are incubated in a total volume of 5 μl (50 mM HEPES, 4 mM Mg-chloride, 0.05% Pluronic F-68, 1.4 mM DTT, 0.5% DMSO, pH 7.7) in the absence or presence of the test compound (10 dilution concentrations) for 90 min at 30° C. The reaction is stopped by the addition of 1 μl 50 mM EDTA solution. 2 μl of the detection solution (1.6 μM SA-Xlent® (Cisbio, Codolet, France), 7.4 nM Anti-GST-K® (Eu-labelled anti-GST, Cisbio, Codolet, France) in 50 mM HEPES, 800 mM KF, 0.1% BSA, 20 mM EDTA, 0.1% CHAPS, pH 7.0) are added. After 1 h incubation at room temperature the HTRF is measured with an Envision multimode reader (Perkin Elmer LAS Germany GmbH) at excitation wavelength 340 nm (laser mode) and emission wavelengths 615 nm and 665 nm. The ratio of the emission signals is determined. The full value used is the inhibitor-free reaction. The pharmacological zero value used is XAV-939 (Tocris) in a final concentration of 5 μM. The inhibitory values (IC50) are determined using either the program Symyx Assay Explorer® or Condosseo® from GeneData.

[3] = biological target: T4, GST-tagged Tnks-2 (873-1166 aa) (Homo sapiens, UniProt Q9H2K2); assay: TNKS2 activity ELISA (autoparsylation assay); assay type: biochemical
T4 construct: GST-tagged Tnks-2 (873-1166 aa, prepared in-house); made in house
Procedure: as §1, §2, §3, §4

[4] = biological target: T5, GST-tagged Tankyrase-2 (873-1166 aa) (Homo sapiens, UniProt Q9H2K2); assay: Tankyrase 2 autoparsylation assay (HTRF); assay type: biochemical; details: read-out: IC50 TNKS2 enzyme assay
T5 construct: GST-tagged Tankyrase-2 (873-1166 aa)
Procedure: as §5, §6, §7

Tankyrases = assay: Cellular inhibition of Tankyrase, Axin2 level in DLD1 cells (Luminex); assay type: cell-based; details: Axin2 increase, 24 hours, read-out: EC50 [M] TNKS cellular assay
Procedure: Measurement of Cellular Inhibition of Tankyrase
Since Tankyrases have been described to modulate cellular level of Axin2 (Huang et al., 2009; Nature) the increase of Axin2 level is used as read-out for determination of cellular inhibition of Tankyrases in a Luminex based assay.
Cells of the colon carcinoma cell line DLD1 are plated in 96 well plates with 1.5×10^4 cells per well. Next day, cells are treated with a serial dilution of test compound in seven steps as triplicates with a final DMSO concentration of 0.3%. After 24 hours, cells are lysed in lysis buffer (20 mM Tris/HCl pH 8.0, 150 mM NaCl, 1% NP40, 10% Glycerol) and lysates are cleared by centrifugation through a 96 well filter plate (0.65 μm). Axin2 protein is isolated from cell lysates by incubation with a monoclonal anti-Axin2 antibody (R&D Systems #MAB6078) that is bound to fluorescent carboxybeads. Then, bound Axin2 is specifically detected with a polyclonal anti-Axin2 antibody (Cell Signaling #2151) and an appropriate PE-fluorescent secondary antibody. The amount of isolated Axin2 protein is determined in a Luminex^200 machine (Luminex Corporation) according to the manufacturer's instruction by counting 100 events per well. Inhibition of Tankyrase by test compounds results in higher levels of Axin2 which directly correlates with an increase of detectable fluorescence. As controls cells are treated with solvent alone (neutral control) and with a Tankyrase reference inhibitor IWR-2 (3E-06 M) which refers as control for maximum increase of Axin2. For analysis, the obtained data are normalized against the untreated solvent control and fitted for determination of the EC50 values using the Assay Explorer software (Accelrys).

β-catenin = details: Huang et al., 2009; cited from earlier work
DLD-1-cancer cells = details: Huang et al., 2009; cited from earlier work

T4 sequence (Q9H2K2 873-1166): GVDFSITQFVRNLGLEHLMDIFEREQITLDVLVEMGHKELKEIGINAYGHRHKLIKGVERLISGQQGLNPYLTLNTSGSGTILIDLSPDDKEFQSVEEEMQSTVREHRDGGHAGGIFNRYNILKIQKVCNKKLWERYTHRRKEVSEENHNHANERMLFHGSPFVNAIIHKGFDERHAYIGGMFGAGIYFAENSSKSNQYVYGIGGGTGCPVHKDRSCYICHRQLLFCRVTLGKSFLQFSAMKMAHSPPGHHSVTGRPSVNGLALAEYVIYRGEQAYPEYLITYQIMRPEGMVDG
T5 sequence (Q9H2K2 873-1166): as above
T2 sequence (O95271 1023-1327): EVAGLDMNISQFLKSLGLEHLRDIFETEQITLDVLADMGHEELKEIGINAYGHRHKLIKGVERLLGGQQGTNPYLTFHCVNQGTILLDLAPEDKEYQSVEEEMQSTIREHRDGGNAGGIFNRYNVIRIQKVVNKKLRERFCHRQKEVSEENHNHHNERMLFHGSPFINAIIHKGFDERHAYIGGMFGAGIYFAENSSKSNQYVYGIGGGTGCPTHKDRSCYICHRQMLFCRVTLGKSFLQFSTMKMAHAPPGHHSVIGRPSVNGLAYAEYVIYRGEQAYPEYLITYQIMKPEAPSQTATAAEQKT
T3 sequence (O95271 1023-1327): as above
T1 sequence (P09874 whole entry): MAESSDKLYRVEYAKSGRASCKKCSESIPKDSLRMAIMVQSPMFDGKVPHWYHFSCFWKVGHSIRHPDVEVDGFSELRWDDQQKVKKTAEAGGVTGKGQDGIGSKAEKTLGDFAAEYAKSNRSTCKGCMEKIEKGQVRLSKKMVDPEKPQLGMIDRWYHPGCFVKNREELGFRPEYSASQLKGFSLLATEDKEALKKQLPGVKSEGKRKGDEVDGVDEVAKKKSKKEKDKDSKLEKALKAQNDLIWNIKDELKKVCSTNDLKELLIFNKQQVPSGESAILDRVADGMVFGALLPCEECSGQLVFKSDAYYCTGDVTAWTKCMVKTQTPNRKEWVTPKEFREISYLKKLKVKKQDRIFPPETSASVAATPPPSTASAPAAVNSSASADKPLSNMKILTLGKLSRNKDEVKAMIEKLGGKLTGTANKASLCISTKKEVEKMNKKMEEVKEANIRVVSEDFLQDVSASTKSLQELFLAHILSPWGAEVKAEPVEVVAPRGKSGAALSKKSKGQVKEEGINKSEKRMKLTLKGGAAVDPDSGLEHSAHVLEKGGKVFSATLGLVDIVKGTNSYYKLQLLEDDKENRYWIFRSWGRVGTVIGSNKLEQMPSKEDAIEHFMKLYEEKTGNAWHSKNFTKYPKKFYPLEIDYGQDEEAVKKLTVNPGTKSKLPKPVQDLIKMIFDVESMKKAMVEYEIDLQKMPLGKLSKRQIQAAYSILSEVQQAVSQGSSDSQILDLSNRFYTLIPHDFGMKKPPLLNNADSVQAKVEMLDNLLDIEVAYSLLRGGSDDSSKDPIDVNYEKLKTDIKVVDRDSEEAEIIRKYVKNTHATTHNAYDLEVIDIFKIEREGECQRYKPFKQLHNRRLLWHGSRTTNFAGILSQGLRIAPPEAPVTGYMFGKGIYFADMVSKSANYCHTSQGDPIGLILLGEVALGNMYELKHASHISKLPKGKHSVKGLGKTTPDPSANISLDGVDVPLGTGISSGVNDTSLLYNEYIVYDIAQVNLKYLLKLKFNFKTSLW

In the case of `Cc1ccc(-c2cn3cncc3c(=O)[nH]2)cc1` [Compound A1, 6-p-tolyl-7H-imidazo[1,5-a]pyrazin-8-one], the IC50 (His-tagged Parp-1) is reported as 3000 to 50000 nM, the IC50 [1] is reported as 300 to 3000 nM and the IC50 [2] is reported as 300 to 3000 nM. For the same compound, the IC50 [3] was 300 to 3000 nM and the IC50 [4] was 300 to 3000 nM.
In the case of `CC(C)(C)c1ccc(-c2cn3cncc3c(=O)[nH]2)cc1` [Compound A2, 6-(4-tert-Butyl-phenyl)-7H-imidazo[1,5-a]pyrazin-8-one], the IC50 (His-tagged Parp-1) is reported as 3000 to 50000 nM, the IC50 [1] is reported as under 300 nM and the IC50 [2] is reported as under 300 nM. The IC50 [3] was under 300 nM, the EC50 (Tankyrases) was 3e-07 to 3e-06 M and the IC50 [4] was 300 to 3000 nM.
Compound `O=c1[nH]c(-c2ccc(C(F)(F)F)cc2)cn2cncc12` [Compound A3, 6-(4-Trifluoromethyl-phenyl)-7H-imidazo[1,5-a]pyrazin-8-one] has an IC50 [1] of under 300 nM, an IC50 [2] of 300 to 3000 nM and an IC50 [3] of under 300 nM. It also gave an IC50 [4] of 300 to 3000 nM.
With `Cn1cc(-c2ccc(-c3cn4cncc4c(=O)[nH]3)cc2)cn1` [Compound A4, 6-[4-(1-methyl-1H-pyrazol-4-yl)-phenyl]-7H-imidazo[1,5-a]pyrazin-8-one] the IC50 [1] was under 300 nM, the IC50 [2] was 300 to 3000 nM and the IC50 [3] was under 300 nM. It also gave an IC50 [4] of 300 to 3000 nM.
Work on `O=c1[nH]c(-c2ccc(CO)cc2)cn2cncc12` [Compound A5, 6-(4-hydroxymethyl-phenyl)-7H-imidazo[1,5-a]pyrazin-8-one] yielded an IC50 [1] of under 300 nM, an IC50 [2] of 300 to 3000 nM and an IC50 [3] of under 300 nM. It also gave an IC50 [4] of 300 to 3000 nM.
`CC(C)(O)c1ccc(-c2cn3cncc3c(=O)[nH]2)cc1` [Compound A6, 6-[4-(1-hydroxy-1-methyl-ethyl)-phenyl]-7H-imidazo[1,5-a]pyrazin-8-one] showed an IC50 (His-tagged Parp-1) of 3000 to 50000 nM, an IC50 [1] of under 300 nM and an IC50 [2] of 300 to 3000 nM. The IC50 [3] was under 300 nM and the IC50 [4] was 300 to 3000 nM.
For `Cc1ncc2c(=O)[nH]c(-c3ccc(C(C)(C)C)cc3)cn12` [Compound A7, 6-(4-tert-butyl-phenyl)-3-methyl-7H-imidazo[1,5-a]pyrazin-8-one], the IC50 [1] was under 300 nM, the IC50 [2] was 300 to 3000 nM and the IC50 [3] was under 300 nM. For the same compound, the EC50 (Tankyrases) was under 3e-07 M and the IC50 [4] was 300 to 3000 nM.
Compound `Cc1ncc2c(=O)[nH]c(-c3ccc(C(C)(C)O)cc3)cn12` [Compound A8, 6-[4-(1-hydroxy-1-methyl-ethyl)-phenyl]-3-methyl-7H-imidazo[1,5-a]pyrazin-one] has an EC50 (Tankyrases) of 3e-07 to 3e-06 M.
In the case of `Oc1nc(-c2ccc(C(F)(F)F)cc2)nc2c1CSCC2` [XAV939], the “Wnt-stimulated accumulation of β-catenin” value (β-catenin) is given as “blocked” and the “growth of DLD-1-cancer cells” value (DLD-1-cancer cells) is given as “inhibits growth”.
